Reference: patent publication US10253015B2, “Pyridinyl quinolinone derivatives as mutant-isocitrate dehydrogenase inhibitors” (FORMA TM2, Inc., priority 2014, dated 2019)

Legend:
[1] = system: HCT116 isogenic IDH1-R132C mutant cells; assay: Cellular 2-HG assay using HCT116 mutant IDH1 cells (R132C); type: cell-based; details: Homo sapiens, HCT-116; cellular 2-HG inhibition, 24 hours, RapidFire mass spectrometry; read-out: HCT IDH1 R132C Range IC50
Protocol: HCT116 isogenic IDH1-R132H and IDH1-R132C mutant cells were cultured in growth media (McCoy's 5 A, 10% fetal bovine serum, 1× antibiotic-antimycotic solution and 0.3 mg/mL G418) in 5% CO2 in an incubator at 37° C. To prepare the assay, cells were trypsinized and resuspended in assay media (McCoy's 5 A with no L-glutamine, 10% fetal bovine serum, 1× antibiotic-antimycotic solution and 0.3 mg/mL G418). An aliquot of 10,000 cells/100 μL was transferred to each well of a clear 96-well tissue culture plate. The cells were incubated in 5% CO2 at 37° C. in an incubator overnight to allow for proper cell attachment. An aliquot of 50 μL of compound containing assay media were then added to each well and the assay plate was kept in 5% CO2 at 37° C. in an incubator for 24 hours. The media was then removed from each well and 150 μL of a methanol/water mixture (80/20 v/v) was added to each well. The plates were kept at −80° C. freezer overnight to allow for complete cell lysis. An aliquot of 125 μL of extracted supernatant was analyzed by RapidFire high-throughout-mass spectrometry (Agilent) to determine the cellular 2-HG level. The IC50 of a given compound was calculated by fitting the dose response curve of cellular 2-HG inhibition at a given concentration with the four parameter logistic equation

[2] = biological target: IDH1-R132H recombinant protein (Homo sapiens (Human), UniProt O75874, R132H); assay: IDH1-R132H enzymatic assay; type: biochemical; details: inhibition of NADPH consumption, diaphorase/resazurin readout; read-out: Enzyme IDH1 R132H Range IC50
Protocol: (§1) Assays were performed in a 384-well black plate. […] After the plate was centrifuged briefly, an aliquot of 10 μL of 2 mM α-ketoglutarate and 20 μM NADPH solution prepared in assay buffer was then added to each well and the reaction was maintained at 25° C. for 45 minutes. An aliquot of 10 μL of diaphorase solution (0.15 U/mL diaphorase and 30 μM Resazurin in assay buffer) was added to each well. […] The IC50 of a given compound was calculated by fitting the dose response curve of inhibition of NADPH consumption at a given concentration with the four parameter logistic equation.

[3] = biological target: IDH1-R132C recombinant protein (Homo sapiens (Human), UniProt O75874, R132C); assay: IDH1-R132C enzymatic assay; type: biochemical; details: inhibition of NADPH consumption, diaphorase/resazurin readout; read-out: Enzyme IDH1 R132C Range IC50
Protocol: as §1

Chain of IDH1-R132H recombinant protein (O75874 whole entry R132H): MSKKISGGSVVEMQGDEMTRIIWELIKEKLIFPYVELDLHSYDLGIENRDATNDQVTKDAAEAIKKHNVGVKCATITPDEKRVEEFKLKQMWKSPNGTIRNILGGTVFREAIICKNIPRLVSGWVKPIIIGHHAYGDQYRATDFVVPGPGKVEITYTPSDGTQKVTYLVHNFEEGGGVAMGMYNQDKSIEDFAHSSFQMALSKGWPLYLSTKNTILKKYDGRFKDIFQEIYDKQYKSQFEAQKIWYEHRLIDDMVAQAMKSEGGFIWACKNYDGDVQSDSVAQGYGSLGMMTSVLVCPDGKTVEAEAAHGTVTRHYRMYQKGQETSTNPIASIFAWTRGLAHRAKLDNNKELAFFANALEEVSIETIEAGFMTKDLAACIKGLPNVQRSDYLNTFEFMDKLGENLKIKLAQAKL
Chain of IDH1-R132C recombinant protein (O75874 whole entry R132C): as the sequence (O75874 whole entry R132H) above, with H132C counted along it

Row | SMILES | IC50 [1] [µM] | IC50 [2] [µM] | IC50 [3] [µM]
1 | COc1cc(N[C@@H](C)c2cc3cc(Cl)ccc3[nH]c2=O)ncc1C#N [Compound I-1, 6-{[(1S)-1-(6-chloro-2-oxo-1,2-dihydroquinolin-3-yl)ethyl]amino}-4-methoxypyridine-3-carbonitrile] | 0.1 to 1 | – | –
2 | COc1cc(N[C@@H](C)c2cc3cc(Cl)ccc3n(C)c2=O)ncc1C#N [Compound I-2, 6-{[(1S)-1-(6-chloro-1-methyl-2-oxo-1,2-dihydroquinolin-3-yl)ethyl]amino}-4-methoxypyridine-3-carbonitrile] | – | 1 to 10 | 1 to 10
3 | C[C@H](Nc1cc(N2CCOC2=O)ccn1)c1cc2cc(Cl)ccc2[nH]c1=O [Compound I-10, 6-chloro-3-[(1S)-1-{[4-(2-oxo-1,3-oxazolidin-3-yl)pyridin-2-yl]amino}ethyl]-1,2-dihydroquinolin-2-one] | – | < 0.1 | 1 to 10
4 | C[C@H](Nc1cccc(N2CCOC2=O)n1)c1cc2cc(Cl)ccc2[nH]c1=O [Compound I-11, 6-chloro-3-[(1S)-1-{[6-(2-oxo-1,3-oxazolidin-3-yl)pyridin-2-yl]amino}ethyl]-1,2-dihydroquinolin-2-one] | 0.1 to 1 | – | –
5 | C[C@H](Nc1cc(N2C(=O)OCC2(C)C)ccn1)c1cc2cc(Cl)ccc2[nH]c1=O [Compound I-13, 6-chloro-3-[(1S)-1-{[4-(4,4-dimethyl-2-oxo-1,3-oxazolidin-3-yl)pyridin-2-yl]amino}ethyl]-1,2-dihydroquinolin-2-one] | – | 0.1 to 1 | 1 to 10
6 | CC(Nc1cc(N2C(=O)OC[C@@H]2C(C)C)ccn1)c1cc2cc(Cl)ccc2[nH]c1=O (stereo partly drawn) [Compound I-18, 6-chloro-3-[1-({4-[(4S)-2-oxo-4-(propan-2-yl)-1,3-oxazolidin-3-yl]pyridin-2-yl}amino)ethyl]-1,2-dihydroquinolin-2-one] | – | 0.1 to 1 | 1 to 10
7 | CC(C)[C@H]1COC(=O)N1c1cccc(N[C@@H](C)c2cc3cc(Cl)ccc3[nH]c2=O)n1 [Compound I-19, 6-chloro-3-[(1S)-1-({6-[(4S)-2-oxo-4-(propan-2-yl)-1,3-oxazolidin-3-yl]pyridin-2-yl}amino)ethyl]-1,2-dihydroquinolin-2-one] | – | 0.1 to 1 | 1 to 10
8 | COc1cc2[nH]c(=O)c([C@H](C)Nc3ccc(C#N)c(C)n3)cc2cc1Cl [Compound I-23, 6-{[(1S)-1-(6-chloro-7-methoxy-2-oxo-1,2-dihydroquinolin-3-yl)ethyl]amino}-2-methylpyridine-3-carbonitrile] | 0.01 to 0.1 | – | –
9 | CC(=O)Nc1ccnc(N[C@@H](C)c2cc3cc(Cl)ccc3[nH]c2=O)c1F [Compound I-34, N-(2-{[(1S)-1-(6-chloro-2-oxo-1,2-dihydroquinolin-3-yl)ethyl]amino}-3-fluoropyridin-4-yl)acetamide] | – | < 0.1 | 0.1 to 1
10 | C[C@H](Nc1nccc(NCCO)c1F)c1cc2cc(Cl)ccc2[nH]c1=O [Compound I-36, 6-chloro-3-[(1S)-1-({3-fluoro-4-[(2-hydroxyethyl)amino]pyridin-2-yl}amino)ethyl]-1,2-dihydroquinolin-2-one] | – | 1 to 10 | > 10
11 | Cc1cc(-c2ccnc(N[C@@H](C)c3cc4cc(Cl)ccc4[nH]c3=O)c2)n(C)n1 [Compound I-39, 6-chloro-3-[(1S)-1-{[4-(1,3-dimethyl-1H-pyrazol-5-yl)pyridin-2-yl]amino}ethyl]-1,2-dihydroquinolin-2-one] | – | 1 to 10 | 0.1 to 1
12 | C[C@H](Nc1cc(-c2ccn[nH]2)ccn1)c1cc2cc(Cl)ccc2[nH]c1=O [Compound I-41, 6-chloro-3-[(1S)-1-{[4-(1H-pyrazol-5-yl)pyridin-2-yl]amino}ethyl]-1,2-dihydroquinolin-2-one] | – | 1 to 10 | 1 to 10
13 | CC(C)Cn1nccc1-c1ccnc(N[C@@H](C)c2cc3cc(Cl)ccc3[nH]c2=O)c1 [Compound I-43, 6-chloro-3-[(1S)-1-({4-[1-(2-methylpropyl)-1H-pyrazol-5-yl]pyridin-2-yl}amino)ethyl]-1,2-dihydroquinolin-2-one] | – | 1 to 10 | 1 to 10
14 | CC(C)n1nccc1-c1ccnc(N[C@@H](C)c2cc3cc(Cl)ccc3[nH]c2=O)c1 [Compound I-44, 6-chloro-3-[(1S)-1-({4-[1-(propan-2-yl)-1H-pyrazol-5-yl]pyridin-2-yl}amino)ethyl]-1,2-dihydroquinolin-2-one] | – | 1 to 10 | 1 to 10
15 | C[C@H](Nc1cc(-c2ccnn2C2CCCCO2)ccn1)c1cc2cc(Cl)ccc2[nH]c1=O (stereo partly drawn) [Compound I-47, 6-chloro-3-[(1S)-1-({4-[1-(oxan-2-yl)-1H-pyrazol-5-yl]pyridin-2-yl}amino)ethyl]-1,2-dihydroquinolin-2-one] | – | 1 to 10 | 1 to 10
16 | Cc1cscc1-c1ccnc(N[C@@H](C)c2cc3cc(Cl)ccc3[nH]c2=O)c1 [Compound I-48, 6-chloro-3-[(1S)-1-{[4-(4-methylthiophen-3-yl)pyridin-2-yl]amino}ethyl]-1,2-dihydroquinolin-2-one] | – | 1 to 10 | 1 to 10
17 | C[C@H](Nc1cc(-c2ccnn2C)ccn1)c1cc2cc(Cl)ccc2[nH]c1=O [Compound I-49, 6-chloro-3-[(1S)-1-{[4-(1-methyl-1H-pyrazol-5-yl)pyridin-2-yl]amino}ethyl]-1,2-dihydroquinolin-2-one] | – | 1 to 10 | 1 to 10
18 | C[C@H](Nc1cc(-c2c[nH]nc2C(F)(F)F)ccn1)c1cc2cc(Cl)ccc2[nH]c1=O [Compound I-50, 6-chloro-3-[(1S)-1-({4-[3-(trifluoromethyl)-1H-pyrazol-4-yl]pyridin-2-yl}amino)ethyl]-1,2-dihydroquinolin-2-one] | – | 1 to 10 | > 10
19 | Cc1cc(-c2ccnc(N[C@@H](C)c3cc4cc(Cl)ccc4[nH]c3=O)c2F)n(C)n1 [Compound I-52, 6-chloro-3-[(1S)-1-{[4-(1,3-dimethyl-1H-pyrazol-5-yl)-3-fluoropyridin-2-yl]amino}ethyl]-1,2-dihydroquinolin-2-one] | – | 1 to 10 | > 10
20 | C[C@H](Nc1nccc(-c2ccnn2C)c1F)c1cc2cc(Cl)ccc2[nH]c1=O [Compound I-53, 6-chloro-3-[(1S)-1-{[3-fluoro-4-(1-methyl-1H-pyrazol-5-yl)pyridin-2-yl]amino}ethyl]-1,2-dihydroquinolin-2-one] | – | 1 to 10 | > 10
21 | CC(C)Cn1nccc1-c1ccnc(N[C@@H](C)c2cc3cc(Cl)ccc3[nH]c2=O)c1F [Compound I-56, 6-chloro-3-[(1S)-1-({3-fluoro-4-[1-(2-methylpropyl)-1H-pyrazol-5-yl]pyridin-2-yl}amino)ethyl]-1,2-dihydroquinolin-2-one] | – | > 10 | > 10
22 | Cc1cc(NCc2cc3cc(Cl)ccc3[nH]c2=O)ncc1C#N [Compound I-59, 6-{[(6-chloro-2-oxo-1,2-dihydroquinolin-3-yl)methyl]amino}-4-methylpyridine-3-carbonitrile] | – | 0.1 to 1 | 1 to 10
23 | N#Cc1ccc(NCc2cc3cc(Cl)ccc3[nH]c2=O)nc1 [Compound I-67, 6-{[(6-chloro-2-oxo-1,2-dihydroquinolin-3-yl)methyl]amino}pyridine-3-carbonitrile] | – | 0.1 to 1 | > 10
24 | Cc1cc2cc(CNc3ccc(C#N)cn3)c(=O)[nH]c2cc1C [Compound I-80, 6-{[(6,7-dimethyl-2-oxo-1,2-dihydroquinolin-3-yl)methyl]amino}pyridine-3-carbonitrile] | – | 0.1 to 1 | –
25 | COc1ccc2[nH]c(=O)c(CNc3ccc(C#N)cn3)cc2c1 [Compound I-81, 6-{[(6-methoxy-2-oxo-1,2-dihydroquinolin-3-yl)methyl]amino}pyridine-3-carbonitrile] | – | 1 to 10 | –
26 | COc1ccc2[nH]c(=O)c(CNc3cc(C)ccn3)cc2c1 [Compound I-82, 6-methoxy-3-{[(4-methylpyridin-2-yl)amino]methyl}-1,2-dihydroquinolin-2-one] | – | > 10 | –
27 | Cc1nc(NCc2cc3cc(Cl)c(OCc4ccccn4)cc3[nH]c2=O)ccc1C#N [Compound I-84, 6-({[6-chloro-2-oxo-7-(pyridin-2-ylmethoxy)-1,2-dihydroquinolin-3-yl]methyl}amino)-2-methylpyridine-3-carbonitrile] | – | 0.1 to 1 | –
28 | Cc1nc(NCc2cc3cc(Cl)c(OCCN4CCN(S(C)(=O)=O)CC4)cc3[nH]c2=O)ccc1C#N [Compound I-85, 6-[({6-chloro-7-[2-(4-methanesulfonylpiperazin-1-yl)ethoxy]-2-oxo-1,2-dihydroquinolin-3-yl}methyl)amino]-2-methylpyridine-3-carbonitrile] | – | < 0.1 | 0.1 to 1
